Data on ten molecules can be found in patent US11192851B2, “Crystal of L-alanyl-L-glutamine and method for producing same” (KYOWA HAKKO BIO CO., LTD., priority 2016, dated 2021).

Residues, ends and D or L forms follow the SMILES beside them.

Holding throughout (format): physicochemical
Series [1] in a line: Loose specific volume of crystals (50 mL measuring cylinder, two-stage funnel). As to conditions: crystal powder. The method, then: The loose specific volume refers to a value obtained by dividing volume occupied by a powder by the mass of the powder when a container is filled with the powder and the mass of the powder is measured. A crystal with a low loose specific volume is excellent in filling properties, and easy to handle in various processing steps, and also its transportation cost is low. Therefore, the loose specific volume is preferably low. The loose specific volume can be measured by a method comprising: dropping crystals to a 50 mL glass measuring cylinder via a two-stage glass funnel to make the volume of the crystal to be about 45 mL, and measuring the weight of the crystals. A value obtained by dividing the measured volume of the crystal by the weight is determined to be the loose specific volume.

Series [2] in a line: Drying loss (water content of crystal by thermal analysis, TG/DTA). As to conditions: water content in the crystals as loss on drying of the thermal analysis. The method, then:
The crystal of L-alanyl-L-glutamine can be confirmed to be a crystal of nonhydrate when the water content, which is measured by using a thermal analysis according to a method described in the following measurement example, is generally 3.0 wt % or less, preferably 2.5 wt % or less, and more preferably 2.0 wt % or less.
[Measurement Example of Water Content of Crystal according to Thermal Analysis]
Used equipment: EXSTAR 6000 TG/DTA 6200 (manufactured by Seiko Instruments Inc.)
Measurement conditions: Temperature increases from 20° C. to 30° C. at 20° C./min→Hold for 15 minutes at 30° C.→Temperature increases from 30° C. to 250° C. at 5° C./min
Nitrogen flow rate: 300 mL/min
About the known crystal obtained by the method described in Japanese Patent No. 4931801 and the crystals of L-alanyl-L-glutamine nonhydrate of the present invention obtained in Examples 10 to 12, the results, which measured in terms of the loose specific volume, the dense specific volume, the angle of repose, the angle of rupture, and the water content in the crystals as loss on drying of the thermal analysis, are shown in Table 17.

Series [3] in a line: Angle of repose (Multi Tester MT-1001T). As to conditions: crystal powder, sieve 1.18 mm, vibration width 0.7 to 0.8 mm. The method, then: The angle of repose refers to an angle formed by a generating line of a cone formed with a powder when the powder is allowed to gently fall onto the horizontal plane through a kind of funnel and a horizontal plane.
[Measurement Conditions for Angle of Repose]
Vibration width: 0.7 to 0.8 mm
The angle-of-repose table is rotated without being given vibration, angles are read at three sites, and an arithmetic mean value of the angles is determined to be the angle of repose.

Series [4] can be described thus: Angle of rupture (Multi Tester MT-1001T). As to conditions: crystal powder, after three impacts. An excerpt:
The angle of rupture refers to an angle formed by a generating line of a cone, formed when a given impact is indirectly applied to a cone formed with a powder by allowing the powder to gently fall onto the horizontal plane through a kind of funnel, and a horizontal plane.
[Specific Example of Measurement Method for Angle of Rupture]
The operation is repeated for three times. Angles are read at three sites by a method similar to the measurement method for the angle of repose, and an arithmetic mean value of the angles is determined to be the angle of rupture.

Series [5] can be described thus: Dense specific volume of crystals (after tapping the cylinder 100 times). The settings on record: crystal powder, after tapping 100 times. The method, then:
The dense specific volume refers to a value obtained by dividing volume of a powder by the mass of the powder, when a container is filled with the powder and the mass of the powder is measured and then a given impact is applied to the container. The dense specific volume can be measured by a method comprising: dropping a crystal to a 50 mL glass measuring cylinder via a two-stage glass funnel to make the volume of the crystal to be about 45 mL; measuring the weight of the crystal; then tapping the measuring cylinder up and down for 100 times; and measuring the volume occupied by the crystal. A value obtained by dividing the measured volume of the crystal by the weight thereof is determined to be the dense specific volume.

Turning to `C[C@H](N)C(=O)N[C@@H](CCC(N)=O)C(=O)O` [Example 12, L-alanyl-L-glutamine nonhydrate] (H-Ala-Gln-OH), the Loose specific volume in series [1] was 3.07 mL/g. In addition, in series [2], the Drying loss is 0.3%. The molecule also yielded an Angle of repose in series [3] of 44.7 °. The molecule further came in with an Angle of rupture in series [4] of 41.4 °. In series [5], this molecule displayed a Dense specific volume of 2.37 mL/g.

In series [1], `C[C@H](N)C(=O)N[C@@H](CCC(N)=O)C(=O)O.O.O` [Example 7, L-alanyl-L-glutamine dihydrate] (H-Ala-Gln-OH) showed a Loose specific volume of 3.27 mL/g. The molecule further registered an Angle of repose in series [3] of 43.8 °. This molecule registered an Angle of rupture in series [4] of 38.8 °. In series [5], the Dense specific volume is listed as 2.73 mL/g.

In series [1], `C[C@H](N)C(=O)N[C@@H](CCC(N)=O)C(=O)O` [Example 10, L-alanyl-L-glutamine nonhydrate] (H-Ala-Gln-OH) registered a Loose specific volume of 3.69 mL/g. In series [2], this molecule had a Drying loss of 1.9%. Also, the Angle of repose in series [3] came out at 46.4 °. For the same molecule, the Angle of rupture in series [4] amounted to 39.5 °. This molecule returned a Dense specific volume in series [5] of 2.59 mL/g.

Take `C[C@H](N)C(=O)N[C@@H](CCC(N)=O)C(=O)O` [Example 11, L-alanyl-L-glutamine nonhydrate] (H-Ala-Gln-OH): the Loose specific volume in series [1] amounted to 3.65 mL/g. In addition, the Drying loss in series [2] is listed as 1.9%. The same molecule returned an Angle of repose in series [3] of 42.8 °. In addition, the Angle of rupture in series [4] worked out at 38.0 °. In series [5], the Dense specific volume was found to be 2.84 mL/g.

In the case of `CCO.C[C@H](N)C(=O)N[C@@H](CCC(N)=O)C(=O)O` [Example 1, L-alanyl-L-glutamine n-ethanolate] (H-Ala-Gln-OH), the Loose specific volume in series [1] turned out to be 2.55 mL/g. Besides, in series [3], the Angle of repose came out at 39.7 °. In addition, the Angle of rupture in series [4] stood at 34.6 °. The same molecule returned a Dense specific volume in series [5] of 2.08 mL/g.

`CCO.C[C@H](N)C(=O)N[C@@H](CCC(N)=O)C(=O)O` [Example 4 (25° C. vacuum drying), L-alanyl-L-glutamine n-ethanolate] (H-Ala-Gln-OH): in series [1], the Loose specific volume came to 3.23 mL/g. In addition, the Angle of repose in series [3] stood at 39.4 °. Also, the Angle of rupture in series [4] worked out at 35.1 °. In addition, the Dense specific volume in series [5] came to 2.32 mL/g.

In series [1], `CCO.C[C@H](N)C(=O)N[C@@H](CCC(N)=O)C(=O)O` [Example 2 (95° C. vacuum drying), L-alanyl-L-glutamine n-ethanolate] (H-Ala-Gln-OH) showed a Loose specific volume of 2.47 mL/g. Further, the Angle of repose in series [3] is 41.2 °. Moreover, the Angle of rupture in series [4] is on record as 35.0 °. The Dense specific volume in series [5] is on record as 1.88 mL/g.

Consider `CCO.C[C@H](N)C(=O)N[C@@H](CCC(N)=O)C(=O)O` [Example 4 (95° C. vacuum drying), L-alanyl-L-glutamine n-ethanolate] (H-Ala-Gln-OH), for which the Loose specific volume in series [1] was found to be 3.61 mL/g. This molecule came in with an Angle of repose in series [3] of 42.5 °. In series [4], this molecule gave an Angle of rupture of 38.6 °. In series [5], this molecule came in with a Dense specific volume of 2.21 mL/g.

In series [1], `C[C@H](N)C(=O)N[C@@H](CCC(N)=O)C(=O)O` [Example 5, L-alanyl-L-glutamine nonhydrate] (H-Ala-Gln-OH) displayed a Loose specific volume of 2.60 mL/g. Besides, the Angle of repose in series [3] is 40.2 °. Moreover, the Angle of rupture in series [4] is 34.7 °. Moreover, the Dense specific volume in series [5] was found to be 2.28 mL/g.

In series [1], `C[C@H](N)C(=O)N[C@@H](CCC(N)=O)C(=O)O` [Patent No. 4931801 (nonhydrate), L-alanyl-L-glutamine nonhydrate, reference compound] (H-Ala-Gln-OH) gave a Loose specific volume of 5.27 mL/g. This molecule also yielded a Drying loss in series [2] of 0.2%. The Angle of repose in series [3] worked out at 50.9 °. Besides, the Angle of rupture in series [4] was 46.0 °. The Dense specific volume in series [5] worked out at 2.66 mL/g.
